Results as given in patent publication US4455290A, “Inhibition of fibrin polymerization by a peptide isolated from fibrin Fragment D1” (Research Corporation, priority 1981, dated 1984).
Peptide text beside a SMILES is read from it.

What was measured:
[1] = molecular target: T1, batroxobin fibrin monomer (Homo sapiens, UniProt P02671+P02675+P02679); assay: Inhibition of fibrin monomer polymerization (absorbance at 350 nm), batroxobin fibrin monomer; format: biochemical
T1 construct: fibrin monomer which was formed by batroxobin (lacking fibrinopeptide A); made in house; host or cells: not recombinant: made from fibrinogen by treatment with batroxobin (Bothrops atrox venom enzyme)
T1 sequence (P02671 36-629 isoform P02671-2): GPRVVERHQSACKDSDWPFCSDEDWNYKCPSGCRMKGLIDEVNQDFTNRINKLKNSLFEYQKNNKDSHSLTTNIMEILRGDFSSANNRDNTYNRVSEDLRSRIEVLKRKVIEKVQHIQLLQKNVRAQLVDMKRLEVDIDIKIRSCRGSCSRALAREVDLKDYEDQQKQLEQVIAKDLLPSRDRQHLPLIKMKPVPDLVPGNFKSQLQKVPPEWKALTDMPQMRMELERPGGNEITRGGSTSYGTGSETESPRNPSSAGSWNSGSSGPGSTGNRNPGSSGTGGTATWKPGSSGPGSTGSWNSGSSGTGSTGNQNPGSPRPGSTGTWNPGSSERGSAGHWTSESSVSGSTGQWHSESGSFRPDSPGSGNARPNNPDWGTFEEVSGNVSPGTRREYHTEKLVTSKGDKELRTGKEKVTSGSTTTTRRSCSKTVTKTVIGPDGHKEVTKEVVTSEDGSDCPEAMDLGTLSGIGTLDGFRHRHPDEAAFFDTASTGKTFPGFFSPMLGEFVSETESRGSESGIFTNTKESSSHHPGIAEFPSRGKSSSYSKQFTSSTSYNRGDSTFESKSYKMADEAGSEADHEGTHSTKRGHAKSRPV
T1 sequence (P02675 31-491): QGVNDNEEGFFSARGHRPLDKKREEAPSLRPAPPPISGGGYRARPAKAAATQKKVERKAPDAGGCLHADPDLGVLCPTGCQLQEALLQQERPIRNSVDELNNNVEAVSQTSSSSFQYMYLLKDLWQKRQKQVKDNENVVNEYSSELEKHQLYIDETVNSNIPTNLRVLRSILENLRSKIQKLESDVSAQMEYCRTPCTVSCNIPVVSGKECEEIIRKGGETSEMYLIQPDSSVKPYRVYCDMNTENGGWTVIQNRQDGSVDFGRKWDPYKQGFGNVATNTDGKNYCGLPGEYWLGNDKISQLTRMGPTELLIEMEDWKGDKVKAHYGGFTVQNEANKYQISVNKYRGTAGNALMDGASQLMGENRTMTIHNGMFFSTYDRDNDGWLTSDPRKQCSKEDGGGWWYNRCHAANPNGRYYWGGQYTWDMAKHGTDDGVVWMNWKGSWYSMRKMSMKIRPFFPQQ
T1 sequence (P02679 27-437 isoform P02679-2): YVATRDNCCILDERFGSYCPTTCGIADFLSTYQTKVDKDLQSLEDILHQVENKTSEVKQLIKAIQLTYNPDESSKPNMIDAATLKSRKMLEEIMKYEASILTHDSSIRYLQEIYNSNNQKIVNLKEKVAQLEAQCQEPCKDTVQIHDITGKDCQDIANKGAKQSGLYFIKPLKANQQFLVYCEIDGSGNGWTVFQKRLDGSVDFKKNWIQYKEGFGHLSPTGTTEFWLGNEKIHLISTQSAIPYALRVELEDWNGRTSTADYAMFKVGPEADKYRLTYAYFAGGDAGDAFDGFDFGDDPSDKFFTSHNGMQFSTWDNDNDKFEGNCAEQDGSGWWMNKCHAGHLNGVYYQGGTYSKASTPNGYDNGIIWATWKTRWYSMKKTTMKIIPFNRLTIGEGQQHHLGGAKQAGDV
Protocol: Fibrin monomer was prepared according to the method of Belitser et al, Biochem. Biophys. Acta 154, 367-375 (1968) using either thrombin or batroxobin (an enzyme from the venom of Bothrops atrox). The polymerization of fibrin monomer which was formed by batroxobin (lacking fibrinopeptide A) or by thrombin (lacking fibrinopeptides A and B) was inhibited by D1 Peptide. Polymerization was measured spectrophotometrically at 350 nm as has been described in Budzynski, Biochem. Biophys. Acta 584, 284-287 (1979). […] At zero time the recorder was started and 0.01 ml of fibrin monomer (1.5 mg/ml in 0.02M acetic acid) was added, the cells were inverted, and the increase in absorbance at 350 nm was measured continuously for 15 min or until plateau levels were reached. For batroxobin fibrin monomer 0.15 ml of buffer or buffer containing D1 Peptide was mixed with 0.05 ml of batroxobin fibrin monomer (1.5 mg/ml in 0.02M acetic acid). The initial rate of polymerization was calculated from the slope of the steepest part of the curve and expressed as the increase in absorbance per min (A350 ·min^-1).
In order to assess the effect of D1 Peptide on fibrin monomer polymerization over a wide range of concentrations, batroxobin fibrin monomer concentration was varied from 3.3×10^-8 M to 1.75×10^-7 M and the maximum rate of polymerization measured in the absence or presence of 2.5×10^-7 M D1 Peptide (FIG. 5). […]

[2] = molecular target: bovine serum albumin (Bos taurus, UniProt P02769); assay: Equilibrium binding of 125-I D1 Peptide, bovine serum albumin
Description: Acta 133, 376-379 (1979).

[3] = molecular target: T2, intact NDSK (Homo sapiens, UniProt P02671+P02675+P02679); assay: Equilibrium binding of 125-I D1 Peptide, intact NDSK
T2 sequence (P02671 20-70 limits assumed): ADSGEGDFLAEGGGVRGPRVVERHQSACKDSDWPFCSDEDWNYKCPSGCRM
T2 sequence (P02675 31-148 limits assumed): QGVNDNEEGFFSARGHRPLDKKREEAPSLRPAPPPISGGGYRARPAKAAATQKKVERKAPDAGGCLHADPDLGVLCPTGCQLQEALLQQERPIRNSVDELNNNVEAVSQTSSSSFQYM
T2 sequence (P02679 27-104 limits assumed): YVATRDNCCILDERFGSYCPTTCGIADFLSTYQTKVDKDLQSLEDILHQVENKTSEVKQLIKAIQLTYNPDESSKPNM

Chain of bovine serum albumin (P02769 25-607): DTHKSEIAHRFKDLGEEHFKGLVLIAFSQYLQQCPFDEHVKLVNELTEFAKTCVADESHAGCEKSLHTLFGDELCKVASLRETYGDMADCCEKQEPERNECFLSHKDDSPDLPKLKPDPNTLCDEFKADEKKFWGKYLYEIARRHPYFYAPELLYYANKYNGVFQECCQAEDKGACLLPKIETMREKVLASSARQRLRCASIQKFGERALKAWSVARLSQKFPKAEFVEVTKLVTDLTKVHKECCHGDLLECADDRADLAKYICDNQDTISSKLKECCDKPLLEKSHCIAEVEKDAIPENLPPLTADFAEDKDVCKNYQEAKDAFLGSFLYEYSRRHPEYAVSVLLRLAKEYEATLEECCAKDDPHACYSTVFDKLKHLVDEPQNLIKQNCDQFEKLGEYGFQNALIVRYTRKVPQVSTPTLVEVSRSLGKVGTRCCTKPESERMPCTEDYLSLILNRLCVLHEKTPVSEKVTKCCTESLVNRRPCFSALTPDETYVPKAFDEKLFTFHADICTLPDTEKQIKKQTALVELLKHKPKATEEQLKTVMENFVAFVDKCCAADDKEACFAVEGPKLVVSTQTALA

In the case of `CC[C@H](C)[C@H](NC(=O)[C@H](CCCCN)NC(=O)[C@H](CCSC)NC(=O)[C@@H](NC(=O)[C@@H](NC(=O)[C@H](CCCCN)NC(=O)[C@H](CCCCN)NC(=O)[C@H](CCSC)NC(=O)[C@H](CO)NC(=O)[C@H](Cc1ccc(O)cc1)NC(=O)[C@H](Cc1c[nH]c2ccccc12)NC(=O)[C@H](CCCNC(=N)N)NC(=O)[C@@H](N)[C@@H](C)O)[C@@H](C)O)[C@@H](C)O)C(=O)N[C@H](C(=O)N1CCC[C@H]1C(=O)N[C@@H](Cc1ccccc1)C(=O)N[C@@H](CC(N)=O)C(=O)N[C@@H](CCCNC(=N)N)C(=O)N[C@@H](CC(C)C)C(=O)N[C@H](C(=O)N[C@H](C(=O)NCC(=O)N[C@@H](CCC(=O)O)C(=O)NCC(=O)N[C@@H](CCC(N)=O)C(=O)N[C@@H](CCC(N)=O)C(=O)N[C@@H](Cc1c[nH]cn1)C(=O)N[C@@H](Cc1c[nH]cn1)C(=O)N[C@@H](CC(C)C)C(=O)NCC(=O)NCC(=O)N[C@@H](C)C(=O)N[C@@H](CCCCN)C(=O)N[C@@H](CCC(N)=O)C(=O)N[C@@H](C)C(=O)NCC(=O)N[C@@H](CC(=O)O)C(=O)N[C@H](C(=O)O)C(C)C)[C@@H](C)CC)[C@@H](C)O)[C@@H](C)CC` [D1 Peptide] (H-TRWYSMKKTTMKIIPFNRLTIGEGQQHHLGGAKQAGDV-OH), the “mode of inhibition of polymerization” value ([1]; batroxobin fibrin monomer 3.3×10^-8 M to 1.75×10^-7 M) is reported as “competitive inhibitor”, the “concentration of fibrin monomer necessary to achieve the same rate of polymerization (apparent [FM])” value ([1]; maximum rate 0.2 A350·min^-1, D1 Peptide 2.6×10^-7 M, 7.8×10^-8 M without peptide) is reported as 142 nM and the “binding to bovine serum albumin” value [2] is reported as “no measurable binding”. The “binding to intact NDSK” value [3] was “no measurable binding”.
